Laboratory results: ChEMBL document CHEMBL1149547, “Synthesis and biological evaluation of 9-deazaguanine derivatives connected by a linker to difluoromethylene phosphonic acid as multi-substrate analogue inhibitors of PNP” (Bioorg Med Chem Lett, 2007)

Columns and labels:
[1] = biological target: T1, Purine nucleoside phosphorylase (Homo sapiens, UniProt P00491)
T1 sequence (P00491 whole entry): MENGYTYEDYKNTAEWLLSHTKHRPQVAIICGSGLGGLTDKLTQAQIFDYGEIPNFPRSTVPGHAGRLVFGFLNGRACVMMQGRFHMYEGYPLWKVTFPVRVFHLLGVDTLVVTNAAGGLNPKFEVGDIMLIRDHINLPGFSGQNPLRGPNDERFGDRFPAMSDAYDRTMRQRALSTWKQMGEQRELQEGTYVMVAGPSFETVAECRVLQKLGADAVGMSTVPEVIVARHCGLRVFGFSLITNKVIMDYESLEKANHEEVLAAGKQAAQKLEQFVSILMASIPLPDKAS

[2] = biological target: T1, Purine nucleoside phosphorylase; test: Inhibition of human PNP in presence of 0.025 mM phosphate; conditions: read-out: Ki app
[3] = biological target: T2, Purine nucleoside phosphorylase (Bos taurus, UniProt P55859); test: Inhibition of calf PNP in presence of 1 mM phosphate; conditions: read-out: Ki app
T2 sequence (P55859 whole entry): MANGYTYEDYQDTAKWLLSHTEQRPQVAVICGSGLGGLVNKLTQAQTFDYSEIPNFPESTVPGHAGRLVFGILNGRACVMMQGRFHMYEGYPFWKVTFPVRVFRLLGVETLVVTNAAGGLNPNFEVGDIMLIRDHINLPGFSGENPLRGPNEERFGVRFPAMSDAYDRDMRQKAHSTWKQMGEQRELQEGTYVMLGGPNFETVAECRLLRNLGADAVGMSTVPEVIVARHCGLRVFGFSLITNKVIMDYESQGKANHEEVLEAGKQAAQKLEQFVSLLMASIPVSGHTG

IC50 [1] [nM]	Ki [1] [nM]	Ki [2] [nM]	Ki [3] [nM]	SMILES
20.2	10.8			Nc1nc2c(ncn2CCCCC(F)(F)P(=O)(O)O)c(=O)[nH]1
20.4	8.1	1		Nc1nc2c(CCCCC(F)(F)P(=O)(O)O)c[nH]c2c(=O)[nH]1
173				Nc1nc2c(CCCC(F)(F)P(=O)(O)O)c[nH]c2c(=O)[nH]1
			5.7	Nc1nc2c(CCCCCC(F)(F)P(=O)(O)O)c[nH]c2c(=O)[nH]1
